Assay results as given in patent EP4702979A1, “USE OF COMPOUND IN PREVENTION OR TREATMENT OF RADIATION-INDUCED BRAIN INJURY” (Guangzhou Cellprotek Pharmaceutical Co., Ltd, priority 2023, dated 2024).
Read-outs that look alike come from different tables or passages of the source.

What was measured:
MAG = conditions: 60mg/kg/d YC-6 for 8 weeks; thalamus of the lesion, 8 weeks after gamma knife radiation; Mean±SEM, n=5; normal 1.04±0.047, model 0.31±0.018; P<0.0001 vs model
Source text: (§1) Table 1. Animal grouping and treatment methods
(§2) The model constructing method for focal radiation-induced brain injury caused by gamma ray radiation was modified based on reported literature. After anesthesia of mouse by intraperitoneal injection of 0.1% pentobarbital sodium solution, the body was fixed on a customized platform, and the mouse skull was scanned by X-ray computed tomography scanner for imaging processing (radiation energy of 80kV, imaging range of 250mm, layer thickness and interlayer spacing of 0.625mm, pixel size of 0.49*0.49mm). The animal irradiation position and gamma knife irradiation depth were determined based on the scanning imaging results. The mouse and customized platform were placed in a stereotactic gamma ray irradiation system for irradiation, with the irradiation site in the left thalamus of the mouse. The coordinates of the irradiation center positioning point were: 2mm behind the anterior fontanelle (AP), 2mm left of the midline (L), and 2mm below the skull dura mater (dorsal ventral DV).

[1] = system: gamma knife irradiation induced focal radiation-induced brain injury; conditions: MRI 8 weeks after 50 Gy gamma ray radiation, Mean±SEM, n=5, RBI+Saline model 15.28 ± 0.98, P<0.05 vs model
Source text: as §1, §2

[2] = system: CC1 positive oligodendrocytes; conditions: 60mg/kg/d YC-6 for 8 weeks; thalamus of the lesion, 8 weeks after gamma knife radiation; Mean±SEM, n=5; normal 1608.00±47.92, model 200.60±21.47; P<0.0001 vs model
Source text: as §1, §2

GFAP positive astrocytes = conditions: 60mg/kg/d YC-6 for 8 weeks; thalamus of the lesion, 8 weeks after gamma knife radiation; Mean±SEM, n=5; normal 57.80 ± 2.69, model 558.20 ± 10.07; P<0.0001 vs model
Source text: as §1, §2

[3] = Animal weighing in radiation-induced brain injury model; assay type: in vivo, C57BL/6 mice; conditions: full 8-week YC-6 administration, 60mg/kg/d; weighed once a week
Method: as §1
Weighing was performed once a week before and after the gamma ray radiation model construction for 8 weeks.

## C[C@@]12CCCC1C1C[C@@H](O)[C@@]3(O)C[C@@H](O)CC[C@]3(C)C1CC2 (stereo partly drawn) [YC-6, 5α-androst-3β,5,6β-triol]
MAG
  MAG fluorescence signal intensity: 0.44±0.018
[1]; 60mg/kg/d YC-6 for 2 weeks, then stopped for 6 weeks
  Volume of lesion: 12.28 ± 0.63^# mm^3
[1]; 60mg/kg/d YC-6 for 8 weeks
  Volume of lesion: 10.27 ± 1.50^# mm^3
[2]
  Number of mature oligodendrocytes: 506.40±30.48 Oligodendrocytes/mm^2
GFAP positive astrocytes
  Number of astrocytes: 357.00 ± 10.61 Astrocytes/mm^2
[3]
  body weight: without affecting body weight
